How the values were obtained:
Test in all cases: Flow cytometry of platelet antigen expression, platelet rich plasma
Format in all cases: cell-based, human
CD9 = settings: for CD9 (mean) log fluorescence intensity / CD9 (peak) log fluorescence intensity: PRP
Source text: (§1) For ex vivo assessment of the SSRIs effect on a PAM, a level of a PAM can be assessed by flow cytometry by first obtaining a sample that comprises platelets and then contacting the sample with a platelet activation agonist, such as phorbol myristate acetate (PMA), ADP (adenosine diphosphate), thrombin, collagen, and/or TRAP (thrombin receptor activating peptide), under conditions suitable for activation of platelets in the sample. The sample is in contact with the agonist preferably for a period of time effective to maximally activate the platelets. […] NDMS at 31.1, 64.1 or 143 ng./ml). Then one contacts or stains the samples with a composition that comprises an anti-PAM antibody e.g., having a fluorescent label, preferably in an amount in excess of that required to bind the PAM expressed on the platelets, under conditions suitable for the formation of labeled complexes between the anti-PAM antibody and activated platelets. Then the formation of the complex in the sample is determined (detected or measured). […] The blood-ACD mixture was centrifuged at 1000 r.p.m. for 10 minutes at room temperature. […] The PRP was then centrifuged at 3000 r.p.m. for 10 minutes. […] All cells were then divided into ten plastic capped tubes. Nine portions of washed platelets were incubated with 5 μfluorescein isothiocyanate (FITC)-conjugated antibodies in the dark at +4 °C for 30 minutes, and one part remained unstained and served as a negative control. Surface antigen expression was measured with monoclonal murine anti-human antibodies: CD9 (p24); CD41a (IIb/IIIa, aIIIbb3); CD42b (Ib); CD61(IIIa) (DAKO Corporation, Carpinteria Calif.); CD49b (VLA-2, or a2b1); CD62p (P-selectin); CD31 (PECAM-1); […] The instrument was calibrated daily with fluorescence beads (CaliBRITE; Becton Dickinson) and measured FITC-conjugated fluorescence intensity. All parameters were obtained using four decade logarithmic amplification. The data was collected and stored in list mode, and then analyzed using CELLQuest® (version 1.2.2) software. Procedures are described in detail in (Gurbel, P. […] Serebruany, V. […] Gurbel, P. A. et al., Coron Artery Dis 9: 451-456 (1998) and Serebruany, V. L. et al., Arterioscl Thromb Vasc Biol 19: 153-158 (1999)). The data in table 1 was obtained using the methods described herein, and in particular, in Examples 1 and 2. The levels of various PAMs were assess from samples of human volunteers.

PECAM-1 = settings: for PECAM-1 (mean) log fluorescence intensity / PECAM-1 (peak) log fluorescence intensity: PRP
Source text: as §1

CPIa-IIa = settings: for CPIa-IIa (mean) log fluorescence intensity / CPIa-IIa (peak) log fluorescence intensity: PRP
Source text: as §1

GP IIIa = settings: PRP
Source text: as §1

GP IIb/IIIa = settings: for GP IIb/IIIa (mean) log fluorescence intensity / GP IIb/IIIa (peak) log fluorescence intensity: PRP
Source text: as §1

[1] = healthy volunteers, sertraline 18.1 ng/ml
[2] = healthy volunteers, sertraline 44.7 ng/ml
[3] = healthy volunteers, sertraline 85.3 ng/ml
[4] = post-angioplasty patient on aspirin, sertraline 18.1 ng/ml
[5] = post-angioplasty patient on aspirin, sertraline 44.7 ng/ml
[6] = post-angioplasty patient on aspirin, sertraline 85.3 ng/ml
[7] = plasma concentration 85.3 ng/ml, equivalent to 200 mg/daily

Structure (SMILES): CN[C@H]1CC[C@@H](c2ccc(Cl)c(Cl)c2)c2ccccc21 [sertraline]
- CD9 (mean) log fluorescence intensity (CD9; [1]): 948
- CD9 (peak) log fluorescence intensity (CD9; [1]): 938
- CD9 (mean) log fluorescence intensity (CD9; [2]): 905
- CD9 (peak) log fluorescence intensity (CD9; [2]): 777
- CD9 (mean) log fluorescence intensity (CD9; [3]): 742
- CD9 (peak) log fluorescence intensity (CD9; [3]): 716
- CD9 (mean) log fluorescence intensity (CD9; [4]): 949
- CD9 (peak) log fluorescence intensity (CD9; [4]): 1027
- CD9 (mean) log fluorescence intensity (CD9; [5]): 1015
- CD9 (peak) log fluorescence intensity (CD9; [5]): 850
- CD9 (mean) log fluorescence intensity (CD9; [6]): 984
- CD9 (peak) log fluorescence intensity (CD9; [6]): 964
- surface expression of CD9 (p24), in words (CD9; [7]): diminished surface expression
- PECAM-1 expression, flow cytometric graph (FIG. 10), in words (PECAM-1; 44.7, 85.3 ng/mL of sertraline): dose dependent decrease in the expression
- PECAM-1 (mean) log fluorescence intensity (PECAM-1; [1]): 117
- PECAM-1 (peak) log fluorescence intensity (PECAM-1; [1]): 88
- PECAM-1 (mean) log fluorescence intensity (PECAM-1; [2]): 104
- PECAM-1 (peak) log fluorescence intensity (PECAM-1; [2]): 71
- PECAM-1 (mean) log fluorescence intensity (PECAM-1; [3]): 84
- PECAM-1 (peak) log fluorescence intensity (PECAM-1; [3]): 66
- PECAM-1 (mean) log fluorescence intensity (PECAM-1; [4]): 94
- PECAM-1 (peak) log fluorescence intensity (PECAM-1; [4]): 76
- PECAM-1 (mean) log fluorescence intensity (PECAM-1; [5]): 99
- PECAM-1 (peak) log fluorescence intensity (PECAM-1; [5]): 98
- PECAM-1 (mean) log fluorescence intensity (PECAM-1; [6]): 97
- PECAM-1 (peak) log fluorescence intensity (PECAM-1; [6]): 93
- surface expression of PECAM-1, in words (PECAM-1; [7]): diminished surface expression
- CPIa-IIa (mean) log fluorescence intensity (CPIa-IIa; [1]): 51
- CPIa-IIa (peak) log fluorescence intensity (CPIa-IIa; [1]): 47
- CPIa-IIa (mean) log fluorescence intensity (CPIa-IIa; [2]): 49
- CPIa-IIa (peak) log fluorescence intensity (CPIa-IIa; [2]): 37
- CPIa-IIa (mean) log fluorescence intensity (CPIa-IIa; [3]): 35
- CPIa-IIa (peak) log fluorescence intensity (CPIa-IIa; [3]): 30
- CPIa-IIa (mean) log fluorescence intensity (CPIa-IIa; [4]): 63
- CPIa-IIa (peak) log fluorescence intensity (CPIa-IIa; [4]): 55
- CPIa-IIa (mean) log fluorescence intensity (CPIa-IIa; [5]): 70
- CPIa-IIa (peak) log fluorescence intensity (CPIa-IIa; [5]): 60
- CPIa-IIa (mean) log fluorescence intensity (CPIa-IIa; [6]): 67
- CPIa-IIa (peak) log fluorescence intensity (CPIa-IIa; [6]): 60
- surface expression of very late antigen-2 (VLA-2, or GPIb-IIa), in words (CPIa-IIa; [7]): diminished surface expression
- GP IIIa (mean) log fluorescence intensity (GP IIIa; [1]): 1389
- GP IIIa (peak) log fluorescence intensity (GP IIIa; [1]): 1197
- GP IIIa (mean) log fluorescence intensity (GP IIIa; [2]): 1197
- GP IIIa (peak) log fluorescence intensity (GP IIIa; [2]): 1084
- GP IIIa (mean) log fluorescence intensity (GP IIIa; [3]): 816
- GP IIIa (peak) log fluorescence intensity (GP IIIa; [3]): 704
- GP IIIa (mean) log fluorescence intensity (GP IIIa; [4]): 1247
- GP IIIa (peak) log fluorescence intensity (GP IIIa; [4]): 1114
- GP IIIa (mean) log fluorescence intensity (GP IIIa; [5]): 1404
- GP IIIa (peak) log fluorescence intensity (GP IIIa; [5]): 1370
- GP IIIa (mean) log fluorescence intensity (GP IIIa; [6]): 1321
- GP IIIa (peak) log fluorescence intensity (GP IIIa; [6]): 1310
- GP IIb/IIIa expression, flow cytometric graph (FIG. 9), in words (GP IIb/IIIa; 44.7, 85.3 ng/mL of sertraline): dose dependent decrease in the expression
- GP IIb/IIIa (mean) log fluorescence intensity (GP IIb/IIIa; [1]): 1038
- GP IIb/IIIa (peak) log fluorescence intensity (GP IIb/IIIa; [1]): 991
- GP IIb/IIIa (mean) log fluorescence intensity (GP IIb/IIIa; [2]): 748
- GP IIb/IIIa (peak) log fluorescence intensity (GP IIb/IIIa; [2]): 518
- GP IIb/IIIa (mean) log fluorescence intensity (GP IIb/IIIa; [3]): 533
- GP IIb/IIIa (peak) log fluorescence intensity (GP IIb/IIIa; [3]): 421
- GP IIb/IIIa (mean) log fluorescence intensity (GP IIb/IIIa; [4]): 911
- GP IIb/IIIa (peak) log fluorescence intensity (GP IIb/IIIa; [4]): 679
- GP IIb/IIIa (mean) log fluorescence intensity (GP IIb/IIIa; [5]): 962
- GP IIb/IIIa (peak) log fluorescence intensity (GP IIb/IIIa; [5]): 798
- GP IIb/IIIa (mean) log fluorescence intensity (GP IIb/IIIa; [6]): 1035
- GP IIb/IIIa (peak) log fluorescence intensity (GP IIb/IIIa; [6]): 922
- surface expression of glycoprotein IIb/IIIa complex (GP IIb/IIIa), in words (GP IIb/IIIa; [7]): diminished surface expression
